In one series the target is T1, OSBP1(V582M) (Homo sapiens, UniProt P22059, V582M).
T1 construct: made in house; host or cells: HEK-293T (transient transfection; S100 lysate, not purified)
T1 sequence (P22059 1-807 V582M): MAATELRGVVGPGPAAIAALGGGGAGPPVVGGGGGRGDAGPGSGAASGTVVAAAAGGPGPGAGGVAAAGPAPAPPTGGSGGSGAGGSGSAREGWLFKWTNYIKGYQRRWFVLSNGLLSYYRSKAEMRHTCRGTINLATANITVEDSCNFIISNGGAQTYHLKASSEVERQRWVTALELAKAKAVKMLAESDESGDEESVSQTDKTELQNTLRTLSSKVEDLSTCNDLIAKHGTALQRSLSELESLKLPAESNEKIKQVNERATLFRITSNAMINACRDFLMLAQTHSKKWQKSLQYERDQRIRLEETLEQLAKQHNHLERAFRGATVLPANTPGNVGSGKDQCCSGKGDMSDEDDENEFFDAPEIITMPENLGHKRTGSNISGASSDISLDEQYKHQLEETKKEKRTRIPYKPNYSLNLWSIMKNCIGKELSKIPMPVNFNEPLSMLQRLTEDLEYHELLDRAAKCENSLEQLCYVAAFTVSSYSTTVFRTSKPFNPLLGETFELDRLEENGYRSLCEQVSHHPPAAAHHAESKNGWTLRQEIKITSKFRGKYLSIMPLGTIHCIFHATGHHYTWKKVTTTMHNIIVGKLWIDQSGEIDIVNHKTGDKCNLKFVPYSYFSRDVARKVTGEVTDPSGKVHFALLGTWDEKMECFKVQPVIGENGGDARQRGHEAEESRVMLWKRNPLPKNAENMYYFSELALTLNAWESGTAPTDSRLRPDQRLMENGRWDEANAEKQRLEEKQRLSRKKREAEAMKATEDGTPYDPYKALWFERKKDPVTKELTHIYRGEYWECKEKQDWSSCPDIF
In words: [3H]-25-OHC binding, OSBP1(V582M) mutant. The note with it: for binding affinity for OSBP1(V582M) compared to wt OSBP1-myc-his: [3H]-25-OHC competition binding. The method, then: [^3H]-25-Hydroxycholesterol charcoal-dextran binding assay.
The binding affinity of 1, 2 and 4a to the OSBP1(M446W) and OSBP1(V582M) mutants were then determined using [^3H]-25-OHC competition binding. […] Within error limits, the binding affinity of 1, 2 and 4a for these two OSBP1 mutants were unchanged compared to wt OSBP1-myc-his (FIG. 4D).

The next series has as its system HCT-116 cells. In words: Growth inhibition with 25-OHC co-administration. In kind it is cell-based, human. The note with it: for effect of 25-OHC co-administration on the antiproliferative activity: 10 μM 25-OHC for 1 and 2. The procedure:
25-OHC (11) is a high-affinity ligand of OSBP1 and ORP4L that is not cytotoxic at concentrations up to 10 μM. Example 1 established that the ORPphilins compete with 25-OHC for binding to OSBP1 and ORP4L (FIG. 2D,E). Therefore, if OSBP1 and ORP4L mediate the biological activities of these compounds, co-administration of sub-lethal doses of 25-OHC with the ORPphilins should inhibit binding of the ORPphilins to OSBP1 and ORP4L, thereby desensitizing cells to the cytotoxic effects of the ORPphilins.

Series [1] has as its system HeLa cells overexpressing OSBP1(M446W)-myc-his. Kind of series: Overexpression-viability assay, OSBP1(M446W)-myc-his. The note with it: 48 h. In kind it is cell-based. The procedure: Overexpression-viability assays with wild-type and mutant OSBP/ORP4L constructs were carried out by transfecting HeLa cells with the appropriate plasmids using Lipofectamine™ LTX with PLUS™ reagent (Invitrogen) as instructed, and after 8 h of transfection, the cells were re-plated for the cell viability assay, performed as described above. Expression levels were evaluated by immunoblotting at the time of dosing.
For additional support that OSBP1 and ORP4L are targets of the ORPphilins, dominant drug-resistant alleles of these proteins were sought. 15 OSBP1 residues inside and outside the region of the protein previously reported to mediate sterol binding were mutated (FIG. 4C). The growth inhibition induced by the ORPphilins was determined in HeLa cells overexpressing either wild-type or mutant OSBP1-myc-his proteins. Expression of wt OSBP1-myc-his and mutant OSBP1-myc-his were nearly equivalent as measured by western blot.
The same mutant caused a 3.9-fold reduction in the antiproliferative activity of OSW-1 (2) (FIG. 4E2) and a 2.7-fold reduction in the activity of schweinfurthin A (4a) (FIG. 4E3). […] The antiproliferative activity of taxol was unaffected by expression of these two OSBP1 mutant proteins (FIGS. 4E4, 4E8).

For series [2], the system named is OSBP1 localization in HCT-116 cells. In words: OSBP1 localization by immunofluorescence microscopy, HCT-116. In kind it is cell-based, human. The note with it: 4 h treatment. The procedure:
Immunofluorescence microscopy. HCT-116 or A549 (adenocarcinomic human alveolar basal epithelial) cells were plated on coverslips in 6-well plates. After 72 h, the culture media was removed and replaced with media containing either compound or vehicle control. At the indicated time-points, the cells were fixed for 10 min using 3.7% formaldehyde in PBS. The coverslips were washed with PBS and permeabilized for 5 min with 0.5% Triton X-100 in PBS. Following PBS washing, the coverslips were blocked for 30 min using Image-iT™ FX (Invitrogen), washed with PBS, and then blocked for 30 min at room temperature (RT) with 1% BSA in PBS (BSA/PBS). The coverslips were then incubated overnight at 4° C. with a primary antibody solution in BSA/PBS. The coverslips were washed with BSA/PBS and incubated for 60 min at RT with Alexa Fluor®-conjugated secondary antibodies (Invitrogen) in BSA/PBS, with the final 30 min including incubation with Hoescht 33258. The coverslips were then washed sequentially with BSA/PBS, PBS, and water and finally mounted on microscope slides using Aqua Poly/Mount (Polysciences Inc.). Imaging data was acquired using Zeiss LSM 510 META scanning confocal microscope.
Although the function of OSBP1 is not yet fully elucidated, several cellular activities have been observed. For instance, OSBP1 translocates from cytoplasmic sites to the trans-Golgi network (TGN) upon addition of 25-OHC to cells. HCT-116 cells were treated with ORPphilins for short time periods (4 h) and the effects on OSBP1 localization monitored using immunofluorescence microscopy.
OSBP1 (green) and trans-Golgi protein P230 (red) were visualized in HCT-116 cells using indirect immunofluorescence microscopy. Cells were treated with compound for 4 h, fixed with 3.7% formaldehyde/PBS, washed, and permeabilized using 0.5% Triton X-100 in PBS. Proteins were labelled using specific primary antibodies against OSBP1 and P230 overnight at 4° C. After washing, cells were treated with Alexa Fluor 488 and Alexa Fluor 546 secondary antibodies for 1 h at RT.

Turning to `C[C@H](CCCC(C)(C)O)[C@H]1CC[C@H]2[C@@H]3CC=C4C[C@@H](O)CC[C@]4(C)[C@H]3CC[C@]12C` [Compound 25-OHC, 25-hydroxycholesterol], the “25-OHC KD of OSBP1(V582M) compared to wt” value on OSBP1(V582M) is recorded as “slightly higher”. Moreover, in the series with HCT-116 cells (concentrations up to 10 μM, cell line not given at the place), the cytotoxicity result is “not cytotoxic”.
Turning to `COc1ccc(C(=O)O[C@H]2[C@H](O[C@@H]3[C@@H](OC(C)=O)[C@H](O[C@H]4C[C@H]5[C@@H]6CC=C7C[C@@H](O)CC[C@]7(C)[C@H]6CC[C@]5(C)[C@@]4(O)[C@H](C)C(=O)CCC(C)C)OC[C@@H]3O)OC[C@@H](O)[C@@H]2O)cc1` [OSW-1], the “reduction in antiproliferative activity at the GI50 level, OSBP1(M446W) vs wt OSBP1” value (“reduction in antiproliferative activity” below) in series [1] was 3.9 fold. The “binding affinity for OSBP1(V582M) compared to wt OSBP1-myc-his” value on OSBP1(V582M) is reported as “unchanged”. The “effect of 25-OHC co-administration on the antiproliferative activity” value in the series with HCT-116 cells is recorded as “nearly complete desensitization”. Moreover, the OSBP1 localization result in series [2] is reported as “caused OSBP1 to localize to a perinuclear position that did not co-localize with p230”.
Turning to `C[C@@H]1[C@]2(O[C@H]3C=C4[C@@H]5CC[C@H]6Cc7nc8c(nc7C[C@]6(C)[C@H]5C[C@@H](O)[C@]4(C)[C@]31O)C[C@@H]1CC[C@H]3C4=CC[C@@H]5[C@H](C)[C@@]6(OC[C@]45C(=O)C[C@@H]3[C@@]1(C)C8)OC(C)(C)C[C@H]6O)O[C@](C)(CO)C[C@H]2O` [cephalostatin 1, Cephalostatin 1], the “reduction in antiproliferative activity” value in series [1] is on record as 18 fold. Further, the “binding affinity for OSBP1(V582M) compared to wt OSBP1-myc-his” value at OSBP1(V582M) is “unchanged”. In addition, the “effect of 25-OHC co-administration on the antiproliferative activity” value in the series with HCT-116 cells is “nearly complete desensitization”. Besides, the OSBP1 localization entry in series [2] is listed as “OSBP1 occupying a perinuclear position with little co-localization of the dispersed p230 marker”; in series [2] (listed as 1), “partially localize to the plasma membrane”.
Regarding schweinfurthin A, the “reduction in antiproliferative activity” value in series [1] came out at 2.7 fold. The “binding affinity for OSBP1(V582M) compared to wt OSBP1-myc-his” value at OSBP1(V582M) was “unchanged”. Besides, the OSBP1 localization entry in series [2] is on record as “caused OSBP1 to accumulate at perinuclear positions with a large degree of co-localization with the trans-Golgi marker p230”.
